Key:
Type in all cases: in vivo, mice (C57BL/6J)
[1] = Test 1 - fat mass and lean mass quantification (EchoMRI), body weight; conditions: summary statement; data in FIGS. 1 and 2
Protocol: (§1) A group of 140 mice (C57BL/6J) was divided in four sub-groups, group 1 having twenty mice and groups 2 to 4 having forty mice each. Group 1 was fed for 60 days with a low fat (LF) diet (providing 10% calories from fat). Group 2 was fed for 60 days with a high fat (HF) diet (providing 50% calories from fat). Groups 3 and 4 were fed for 60 days with a high fat diet and with 3 mg/kg/day of HMRlignan™ purified HMR (HF+HMR) or 10 mg/kg/day of a total extract of Picea abies (HF+TEP), respectively.
(§2) Mice were kept in animal cabinets maintained at a temperature of 23° C., with natural light/dark cycles. Before treatments, mice were put 5 days on an low fat diet. Mice were fed by gavage daily for 60 days (groups 3 and 4), whilst control groups (1 and 2) received by gavage the carrier only (corn oil). […]
EchoMRI provides the most precise measurements of whole body composition parameters (total body fat and lean mass), in alive mice without the need of anesthesia or sedation and in less than 1 minute. Alterations in mouse whole body composition were assessed as a result of exposure to modified diets. […]
The EchoMRI-100™ QNMR system was housed in a dedicated area to minimize the entry of disease or contaminants. […] The output information was expressed as lean tissue mass and fat mass in grams. […]

[2] = test system: epidydimal adipose tissue; experiment: Test 2 - histological examination, average adipocyte area
Protocol: as §1
(§3) Mice were kept in animal cabinets maintained at a temperature of 23° C., with natural light/dark cycles. Before treatments, mice were put 5 days on an low fat diet. Mice were fed by gavage daily for 60 days (groups 3 and 4), whilst control groups (1 and 2) received by gavage the carrier only (corn oil). The animals were sacrificed by cervical dislocation and the tissues dissected and immediately frozen on dry ice or fixed for histological evaluation.
Fresh epidydimal adipose tissue was fixed in formaldehyde, embedded in paraffin and sliced into 3-μm sections. Sections were stained with hematoxylin, counterstained with eosin, then coverslipped with DPX (BDH, Poole, UK). […]
Average adipocyte area was calculated at ×20 magnification with a dedicated software (Image Pro Plus; Imaging and Computer, Milan). In all samples, at least four different fields of three different tissue sections have been evaluated.

[3] = test system: liver tissue; experiment: Test 3 - liver steatosis (histology); conditions: high fat diet, 60 days; HMR 3 mg/kg/day, TEP 10 mg/kg/day; compared with HF group 2 (micro- and macro vesicular steatosis)
Protocol: as §1, §3
Fresh liver tissue was fixed in formaldehyde, embedded in paraffin and sliced into 3-μm sections. Sections were stained with hematoxylin, counterstained with eosin, then coverslipped with DPX (BDH, Poole, UK). Images acquisition was obtained by a digital camera (Nikon Digital Camera DMX 1200). A sample image of the four groups was illustrated in FIG. 3.

[4] = Test 4 - glucose tolerance test; conditions: summary statement; data in FIG. 4
Protocol: as §1, §3
For glucose tolerance tests animals were fasted overnight for 12 hours and blood sample were obtained from the tail vein. […] The glucose concentration was evaluated with standard method (Benjamin B. Whiddon and Richard D. Palmiter. Ablation of Neurons Expressing Melanin-Concentrating Hormone (MCH) in Adult Mice Improves Glucose Tolerance Independent of MCH Signaling. J Neurosci. 2013 Jan. 30; 33(5): 2009-2016).

[5] = Test 5 - homeostasis model assessment of insulin resistance (HOMA-IR); conditions: HOMA Calculator, glucose and insulin after 6 hours of food withdrawal, high fat diet, 60 days
Protocol: as §1, §3
The homeostatic model assessment of insulin resistance (HOMA-IR) was calculated using glucose and insulin concentrations obtained after 6 hours of food withdrawal, using the HOMA Calculator (Diabetes Trials Unit), the Oxford Centre for Diabetes, Endocrinology and Metabolism: homa.calculator@dtu.ox.ac.uk. Plasma insulin levels were measured with an insulin ELISA kit (Millipore, Mouse Insulin 96 well plate assay; CAT. Nº EZRMI-13K).

[6] = Test 6 - lipid profiles in blood
Protocol: as §1, §3
The concentration in blood of cholesterol (Total), cholesterol HDL (HDL), cholesterol LDL (LDL) and triglycerides (TG) were determined according to standard methods, by using an ILab ARIES analyzer (Instrumentation Laboratory Company, Lexington, Mass., USA) and dedicated reagents kits IL Test (Instrumentation Laboratory Company, Lexington, Mass., USA)

[7] = test system: IL-6 and TNF-alfa mRNA; experiment: Test 7 - inflammatory cytokine mRNA expression; conditions: summary statement; data in FIGS. 6a-6c
Protocol: as §1, §2
The expression of inflammatory cytokine mRNA was measured in the epidydimal adipose tissue (IL-6 and TNF-alfa) and liver (IL-6) in the four groups of mice according to standard procedures as follows.
(§4) Total RNA was extracted from 10 to 30 mg of tissue using the RNeasy Lipid Tissue Kit (Qiagen, Maryland, USA) and following the manufacture's instruction. […] Quantitative PCR was performed using Assay on Demand kits based on TaqMan chemistry (Applied Biosystems). […]

[8] = test system: ATGL, PLA2g7 and LPL mRNA; experiment: Test 8 - regulation of genes of the lipid metabolism (epidydimal adipose tissue); conditions: summary statement; data in FIGS. 7a-7c
Protocol: as §1, §3
The expression of ATGL, PLA2g7 and LPL mRNA was measured in the epidydimal adipose tissue of the four groups of mice according to standard procedures as follows.
as §4

[9] = test system: PPARg and TFEB mRNA; experiment: Test 9 - regulation of genes of the lipid metabolism (liver); conditions: summary statement; data in FIGS. 8a, 8b
Protocol: as §1, §3
The expression of PPARg and TFEB mRNA was measured in the liver of the four groups of mice according to standard procedures as follows.
as §4

[10] = test system: GSTs mRNA; 8OHdG and dGU; experiment: Test 10 - oxidative stress (GSTs mRNA, 8OHdG/dGU); conditions: summary statement; data in FIGS. 9, 10
Protocol: as §1
Mice were kept in animal cabinets maintained at a temperature of 23° C., with natural light/dark cycles. Before treatments, mice were put 5 days on an low fat diet. […]
The expression of GSTs mRNA was measured in the four groups of mice according to standard procedures as follows.
as §4
The expression of 8OHdG and dGU […] was measured in the four groups of mice according to standard procedures as follows.
Genomic DNA was isolated with commercial kit PUREGENE (Gentra Systems MN, USA), following the manufacturer's instructions, and then quantified using Nanodrop spectrophotometer (Thermo Scientific, DE, USA). […]

[11] = test system: hepcidin, ferritin and ferroportin; experiment: Test 11 - iron metabolism; conditions: summary statement; data in FIG. 11
Protocol: as §1, §3
The levels of hepcidin, ferritin and ferroportin were measured in the four groups of mice according to standard procedures as described, for example, in An-Sheng Zhang et al. “Suppression of hepatic hepcidin expression in response to acute iron deprivation is associated with an increase of matriptase-2 protein”, Blood. Feb. 3, 2011; 117(5):1687-1699).

## COc1cc(CC2C(=O)OCC2C(O)c2ccc(O)c(OC)c2)ccc1O (stereo not drawn) [HMR, 7-hydroxymatairesinol]
[1]
  obesity: able to reduce
[2]; epidydimal adipose tissue, high fat diet, 60 days, daily gavage, HMR 3 mg/kg/day, TEP 10 mg/kg/day, HF control 20832, LF 9275, data only indicative, group 3 vs group 2 statistically different
  Average area (adipocyte): 18478 μm^2
[2]; summary statement
  number and area of adipocytes: able to reduce
[3]
  Liver histology (steatosis): some vacuoles, much less than group 2
[4]
  glycaemia: able to reduce
[5]; HF control 6.97, LF 0.69
  IR: Insulin resistance: 2.04
[5]; HF control 15.0, LF 121.0
  % S: Insulin sensitivity: 31.9
[5]; HF control 101.0, LF 64.4
  % B: Steady state beta cell function: 55.0
[6]; high fat diet, 60 days, HF control 56, LF 18
  cholesterol LDL (LDL) concentration in blood: 51
[6]; high fat diet, 60 days, HF control 133, LF 79
  cholesterol HDL (HDL) concentration in blood: 129
[6]; high fat diet, 60 days, HF control 153, LF 88
  triglycerides (TG) concentration in blood: 140
[6]; high fat diet, 60 days, HMR 3 mg/kg/day, TEP 10 mg/kg/day, HF control 220, LF 114
  cholesterol (Total) concentration in blood: 209
[6]; summary statement
  dyslipidemia: able to reduce
[7]
  concentration of pro-inflammatory cytokines in the epidydimal adipose tissue and liver: reduce
[8]
  regulation of genes of the lipid metabolism in the epidydimal adipose tissue (ATGL mRNA, PLA2g7 gene, LPL gene): able to contribute to the regulation
[9]
  regulation of genes of the lipid metabolism in the liver (PPARg gene, TFEB gene): able to contribute to the regulation
[10]
  cellular oxidative stress: able to reduce
[11]
  iron metabolism: regulate

Source: patent publication US10314814B2, “Composition comprising 7-hydroxymatairesinol” (LINNEA S.A., priority 2014, dated 2019)
